Test results published in ChEMBL document CHEMBL5316297, “Mechanistic Insight of Synthesized 1,4-Dihydropyridines as an Antidiabetic Sword against Reactive Oxygen Species” (J Med Chem, 2023).

What was measured:
[1] = Acute toxicity in Swiss albino mouse assessed as effect on behavioural change up to 2000 mg/kg, po administered for 14 days; format: organism-based; conditions: in vivo, 336 h, time 14 day
[2] = test system: Mus musculus; test: Antidiabetic activity against high fat diet-STZ-induced diabetic Swiss albino mouse model assessed as reduction in blood glucose level at 0.2 mmol/Kg/day, po administered for 14 days relative to glimepiride; format: functional; set-up: scale not given: the % may be the effect or the level left; conditions: time 14 day
[3] = Toxicity in high fat diet-STZ-induced diabetic Swiss albino mouse model assessed as changes in body weight at 0.2 mmol/Kg/day, po administered for 14 days (reference value: 26.6 to 27.8 g); format: organism-based; conditions: in vivo, 336 h, time 14 day
[4] = Acute toxicity in Swiss albino mouse assessed as effect on mortality up to 2000 mg/kg, po administered for 14 days; format: organism-based; conditions: in vivo, 336 h, time 14 day
[5] = Acute toxicity in Swiss albino mouse assessed as toxic symptoms up to 2000 mg/kg, po administered for 14 days; format: organism-based; conditions: in vivo, 336 h, time 14 day
[6] = test system: Mus musculus; test: Antidiabetic activity against high fat diet-STZ-induced diabetic Swiss albino mouse model assessed as reduction in blood glucose level at 0.2 mmol/Kg/day, po administered for 14 days relative to control; format: functional; set-up: scale not given: the % may be the effect or the level left; conditions: time 14 day
[7] = Acute toxicity in Swiss albino mouse assessed as effect on motor alterations up to 2000 mg/kg, po administered for 14 days; format: organism-based; conditions: in vivo, 336 h, time 14 day
[8] = test system: Mus musculus; test: Antidiabetic activity against high fat diet-STZ-induced diabetic Swiss albino mouse model assessed as reduction in blood glucose level at 0.2 mmol/Kg/day, po administered for 14 days; format: functional; conditions: time 14 day

SMILES | Activity [1] | Activity [2] [%] | Activity [3] [g] | Activity [4] | Activity [5] | Activity [6] [%] | Activity [7] | Activity [8] [mg/dL]
COCCOC(=O)C1=C(C)NC(C)=C(C(=O)OC)C1c1cccc2c1OCO2 (stereo not given) | Non-Toxic | 40 | 28.3 | Non-Toxic | Non-Toxic | 13.4 | Non-Toxic | 258.24
CC1=C(C(=O)OC(C)(C)C)C(c2cccc3c2OCO3)C(C(=O)OC(C)(C)C)=C(C)N1 | Non-Toxic | <1 | 29.3 | Non-Toxic | Non-Toxic | 0.69 | Non-Toxic | 296.14
COC(=O)C1=C(C)NC(C)=C(C(=O)OCc2ccccc2)C1c1ccc2c(c1)OCO2 (stereo not given) | Non-Toxic | 128 | 27.4 | Non-Toxic | Non-Toxic | 42.88 | Non-Toxic | 170.33
COCCOC(=O)C1=C(C)NC(C)=C(C(=O)OC)C1c1ccc2c(c1)OCO2 (stereo not given) | Non-Toxic | 38 | 28.6 | Non-Toxic | Non-Toxic | 12.73 | Non-Toxic | 260.24
CC1=C(C(=O)OCc2ccccc2)C(c2cccc3c2OCO3)C(C(=O)OCc2ccccc2)=C(C)N1 | Non-Toxic | 129 | 27.3 | Non-Toxic | Non-Toxic | 43.66 | Non-Toxic | 169.4
CCOC(=O)C1=C(C)NC(C)=C(C(=O)OC)C1c1cccc2c1OCO2 (stereo not given) [OXODIPINE] | Non-Toxic | 190 | 27.2 | Non-Toxic | Non-Toxic | 63.65 | Non-Toxic | 108.4
CC1=C(C(=O)OCc2ccccc2)C(c2ccc3c(c2)OCO3)C(C(=O)OCc2ccccc2)=C(C)N1 |  | 113 | 27 |  |  | 37.86 |  | 185.3
CCOC(=O)C1=C(C)NC(C)=C(C(=O)OCc2ccccc2)C1c1cccc2c1OCO2 (stereo not given) | Non-Toxic | 132 | 27.2 | Non-Toxic | Non-Toxic | 44.22 | Non-Toxic | 166.34
COC(=O)C1=C(C)NC(C)=C(C(=O)OC(C)C)C1c1cccc2c1OCO2 (stereo not given) | Non-Toxic | 60 | 28.9 | Non-Toxic | Non-Toxic | 20.11 | Non-Toxic | 238.23
CC1=C(C(=O)OC(C)C)C(c2cccc3c2OCO3)C(C(=O)OC(C)C)=C(C)N1 | Non-Toxic | 30 | 28.9 | Non-Toxic | Non-Toxic | 10.05 | Non-Toxic | 268.23
CCOC(=O)C1=C(C)NC(C)=C(C(=O)OCCOC)C1c1cccc2c1OCO2 (stereo not given) | Non-Toxic | 134 | 27.2 | Non-Toxic | Non-Toxic | 44.89 | Non-Toxic | 164.33
COCCOC(=O)C1=C(C)NC(C)=C(C(=O)OCCOC)C1c1ccc2c(c1)OCO2 |  | 90 | 27.4 |  |  | 30.11 |  | 208.41
CCOC(=O)C1=C(C)NC(C)=C(C(=O)OC)C1c1ccc2c(c1)OCO2 (stereo not given) | Non-Toxic | 160 | 27.4 | Non-Toxic | Non-Toxic | 53.6 | Non-Toxic | 138.36
CCOC(=O)C1=C(C)NC(C)=C(C(=O)OCC)C1c1ccc2c(c1)OCCO2 | Non-Toxic | 148 | 26.8 | Non-Toxic | Non-Toxic | 49.58 | Non-Toxic | 150.35
COCCOC(=O)C1=C(C)NC(C)=C(C(=O)OCCOC)C1c1cccc2c1OCO2 | Non-Toxic | 90 | 27 | Non-Toxic | Non-Toxic | 30.11 | Non-Toxic | 208.41
COC(=O)C1=C(C)NC(C)=C(C(=O)OC)C1c1cccc2c1OCO2 | Non-Toxic | 184 | 26.6 | Non-Toxic | Non-Toxic | 61.63 | Non-Toxic | 114.42
COC(=O)C1=C(C)NC(C)=C(C(=O)OC(C)(C)C)C1c1ccc2c(c1)OCO2 (stereo not given) | Non-Toxic | <1 | 29.1 | Non-Toxic | Non-Toxic | 0.39 | Non-Toxic | 297.04
CCOC(=O)C1=C(C)NC(C)=C(C(=O)OC)C1c1ccc2c(c1)OCCO2 (stereo not given) | Non-Toxic | 151 | 27.5 | Non-Toxic | Non-Toxic | 50.49 | Non-Toxic | 147.34
COC(=O)C1=C(C)NC(C)=C(C(=O)OC)C1c1ccc2c(c1)OCCO2 | Non-Toxic | 145 | 27.3 | Non-Toxic | Non-Toxic | 48.62 | Non-Toxic | 153.21
CC1=C(C(=O)OC(C)(C)C)C(c2ccc3c(c2)OCO3)C(C(=O)OC(C)(C)C)=C(C)N1 |  | <1 | 26.9 |  |  | 0.61 |  | 296.38
CCOC(=O)C1=C(C)NC(C)=C(C(=O)OC(C)(C)C)C1c1ccc2c(c1)OCO2 (stereo not given) | Non-Toxic | <1 | 27.9 | Non-Toxic | Non-Toxic | 0.1 | Non-Toxic | 297.9
CCOC(=O)C1=C(C)NC(C)=C(C(=O)OC(C)C)C1c1ccc2c(c1)OCO2 (stereo not given) | Non-Toxic | <1 | 29.2 | Non-Toxic | Non-Toxic | 0.11 | Non-Toxic | 297.87
CCOC(=O)C1=C(C)NC(C)=C(C(=O)OCCOC)C1c1ccc2c(c1)OCO2 (stereo not given) | Non-Toxic | 131 | 27.2 | Non-Toxic | Non-Toxic | 43.89 | Non-Toxic | 167.32
COC(=O)C1=C(C)NC(C)=C(C(=O)OC)C1c1ccc2c(c1)Cc1ccccc1-2 | Non-Toxic | 1 | 29.2 | Non-Toxic | Non-Toxic | 0.41 | Non-Toxic | 296.98
COC(=O)C1=C(C)NC(C)=C(C(=O)OC(C)(C)C)C1c1cccc2c1OCO2 (stereo not given) | Non-Toxic | <1 | 28.7 | Non-Toxic | Non-Toxic | 0.29 | Non-Toxic | 297.34
CCOC(=O)C1=C(C)NC(C)=C(C(=O)OC(C)C)C1c1cccc2c1OCO2 (stereo not given) | Non-Toxic | <1 | 28.9 | Non-Toxic | Non-Toxic | 0.27 | Non-Toxic | 297.39
CCOC(=O)C1=C(C)NC(C)=C(C(=O)OCc2ccccc2)C1c1ccc2c(c1)OCO2 (stereo not given) | Non-Toxic | 129 | 27.3 | Non-Toxic | Non-Toxic | 43.21 | Non-Toxic | 169.35
COC(=O)C1=C(C)NC(C)=C(C(=O)OC(C)C)C1c1ccc2c(c1)OCO2 (stereo not given) | Non-Toxic | 54 | 28.3 | Non-Toxic | Non-Toxic | 18.09 | Non-Toxic | 244.26
COC(=O)C1=C(C)NC(C)=C(C(=O)OCc2ccccc2)C1c1cccc2c1OCO2 (stereo not given) | Non-Toxic | 130 | 27.4 | Non-Toxic | Non-Toxic | 43.55 | Non-Toxic | 168.33
